Experimental data taken from US10556943B2, “HLA-DR binding peptides and their uses” (priority 2007, dated 2020).
Like-named read-outs stand apart in the source and are kept apart here.

What was measured:
purified HLA DRB1*0405 = molecular target: T1, purified HLA DRB1*0405 (Homo sapiens, UniProt P01903+P01911, A100R/A169T/D86S/F76Y/I96L/K127E/L162R/M171V/N62H/P40V/Q125Y/R42H/S133A/S149N/S66Y/V115G/V209L/W38E); experiment: HLA-DR radioligand binding inhibition assay, DRB1*0405
T1 construct: MHC molecules utilized were purified from EBV transformed homozygous cell lines or single MHC allele transfected 721.221, C1R, or fibroblast lines; made in house; host or cells: EBV transformed homozygous cell lines or single MHC allele transfected 721.221, C1R, or fibroblast lines
Description: (§1) Fifteen distinct HLA-DR molecules were used in quantitative assays to measure the binding of peptides to solubilized HLA-DR molecules. […] Briefly, columns of inactivated Sepharose CL4B and Protein A Sepharose were used as pre-columns. HLA-DR molecules were captured by passage of lysates over LB3.1 monoclonal antibody (anti-HLA-DRA) columns. Antibody columns were washed with 10 mM Tris-HCL, pH8.0 with 1% (v/v) NP-40, followed by PBS containing 0.4% (w/v) n-octylglucoside. […] The pH was reduced to 8.0 and the eluates were concentrated by centrifugation in Centriprep 30 concentrators at 2000 rpm (Amicon, Beverly, Mass.).
(§2) Briefly, 1-10 nM of radiolabeled peptide was co-incubated for 2 days at either room temperature or 37° C. with 1 μM to 1 nM purified HLA-DR molecules in the presence of a cocktail of protease inhibitors. Assays were performed at various pH conditions, ranging from pH 4 to pH 7. […] After incubation, the percentage of HLA-DR-bound radioactivity is determined by capturing HLA-DR/peptide complexes on Optiplates (Packard Instruments, Meriden, Conn.) coated with the LB3.1 antibody and determining bound counts per minute using the TopCount microscintillation counter (Packard Instruments). […] Competitor peptides are tested in 2-4 complete, independent experiments, at concentrations ranging from 30 μg/mL to 300 pg/mL.

purified HLA DRB1*0404 = molecular target: T2, purified HLA DRB1*0404 (Homo sapiens, UniProt P01903+P01911, A100R/A169T/F76Y/I96L/K127E/L162R/M171V/N62H/P40V/Q125Y/R42H/S133A/S149N/S66Y/V209L/W38E); experiment: HLA-DR radioligand binding inhibition assay, DRB1*0404
T2 construct: MHC molecules utilized were purified from EBV transformed homozygous cell lines or single MHC allele transfected 721.221, C1R, or fibroblast lines; made in house; host or cells: EBV transformed homozygous cell lines or single MHC allele transfected 721.221, C1R, or fibroblast lines
Description: as §1, §2

purified HLA DRB1*1101 = molecular target: T3, purified HLA DRB1*1101 (Homo sapiens, UniProt P01903+P01911, A100R/A169T/A87E/I96F/K41T/L162R/M171V/P40S/Q125H/Q178H/Q39Y/Q99D/R42S/S66Y/T262R/V115G/W38E); experiment: HLA-DR radioligand binding inhibition assay, DRB1*1101
T3 construct: MHC molecules utilized were purified from EBV transformed homozygous cell lines or single MHC allele transfected 721.221, C1R, or fibroblast lines; made in house; host or cells: EBV transformed homozygous cell lines or single MHC allele transfected 721.221, C1R, or fibroblast lines
Description: as §1, §2

purified HLA DRB5*0101 = molecular target: T4, purified HLA DRB5*0101 (Homo sapiens, UniProt P01903+Q30154); experiment: HLA-DR radioligand binding inhibition assay, DRB5*0101
T4 construct: MHC molecules utilized were purified from EBV transformed homozygous cell lines or single MHC allele transfected 721.221, C1R, or fibroblast lines; made in house; host or cells: EBV transformed homozygous cell lines or single MHC allele transfected 721.221, C1R, or fibroblast lines
Description: as §1, §2

purified HLA DRB4*0101 = molecular target: T5, purified HLA DRB4*0101 (Homo sapiens, UniProt P01903+P13762, G164S); experiment: HLA-DR radioligand binding inhibition assay, DRB4*0101
T5 construct: MHC molecules utilized were purified from EBV transformed homozygous cell lines or single MHC allele transfected 721.221, C1R, or fibroblast lines; made in house; host or cells: EBV transformed homozygous cell lines or single MHC allele transfected 721.221, C1R, or fibroblast lines
Description: as §1, §2

purified HLA DRB1*0401 = molecular target: T6, purified HLA DRB1*0401 (Homo sapiens, UniProt P01903+P01911, A100K/A169T/F76Y/I96L/K127E/L162R/M171V/N62H/P40V/Q125Y/R42H/S133A/S149N/S66Y/V115G/V209L/W38E); experiment: HLA-DR radioligand binding inhibition assay, DRB1*0401
T6 construct: MHC molecules utilized were purified from EBV transformed homozygous cell lines or single MHC allele transfected 721.221, C1R, or fibroblast lines; made in house; host or cells: EBV transformed homozygous cell lines or single MHC allele transfected 721.221, C1R, or fibroblast lines
Description: as §1, §2

purified HLA DRB1*0101 = molecular target: T7, purified HLA DRB1*0101 (Homo sapiens, UniProt P01903+P01911, A100R/D57E/F55L/F60I/F76Y/I96L/L162R/M171V/P40L/Q125E/R42F/V115G/Y59C); experiment: HLA-DR radioligand binding inhibition assay, DRB1*0101; details: read-out: IC50 to purified HLA DRB1*0101
T7 construct: MHC molecules utilized were purified from EBV transformed homozygous cell lines or single MHC allele transfected 721.221, C1R, or fibroblast lines; made in house; host or cells: EBV transformed homozygous cell lines or single MHC allele transfected 721.221, C1R, or fibroblast lines
Description: Fifteen distinct HLA-DR molecules were used in quantitative assays to measure the binding of peptides to solubilized HLA-DR molecules. […] Briefly, columns of inactivated Sepharose CL4B and Protein A Sepharose were used as pre-columns. HLA-DR molecules were captured by passage of lysates over LB3.1 monoclonal antibody (anti-HLA-DRA) columns. Antibody columns were washed with 10 mM Tris-HCL, pH8.0 with 1% (v/v) NP-40, followed by PBS containing 0.4% (w/v) n-octylglucoside.
Briefly, 1-10 nM of radiolabeled peptide was co-incubated for 2 days at either room temperature or 37° C. with 1 μM to 1 nM purified HLA-DR molecules in the presence of a cocktail of protease inhibitors. Assays were performed at various pH conditions, ranging from pH 4 to pH 7. […] After incubation, the percentage of HLA-DR-bound radioactivity is determined by capturing HLA-DR/peptide complexes on Optiplates (Packard Instruments, Meriden, Conn.) coated with the LB3.1 antibody and determining bound counts per minute using the TopCount microscintillation counter (Packard Instruments).

T3 sequence (P01903 26-254, other chains not shown): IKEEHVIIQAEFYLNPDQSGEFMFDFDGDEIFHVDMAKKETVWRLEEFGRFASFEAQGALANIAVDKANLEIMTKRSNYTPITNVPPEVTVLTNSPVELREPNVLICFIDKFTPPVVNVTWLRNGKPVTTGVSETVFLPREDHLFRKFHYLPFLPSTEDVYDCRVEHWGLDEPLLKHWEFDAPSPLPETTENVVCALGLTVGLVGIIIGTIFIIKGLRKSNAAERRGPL

CC(C)C[C@H](NC(=O)[C@H](CC(=O)O)NC(=O)[C@H](CCCNC(=N)N)NC(=O)[C@@H](N)Cc1c[nH]cn1)C(=O)N[C@@H](C)C(=O)N[C@@H](C)C(=O)N[C@@H](CCCNC(=N)N)C(=O)N[C@@H](CC(N)=O)C(=O)N[C@H](C(=O)N[C@@H](CC(C)C)C(=O)N[C@H](C(=O)N[C@@H](CCCCN)C(=O)N[C@@H](CO)C(=O)N1CCC[C@H]1C(=O)N[C@@H](CC(N)=O)C(=O)O)C(C)C)C(C)C [Peptide 9019.0085]
IC50 (purified HLA DRB1*0405): 11.2 µM

CC[C@H](C)[C@H](NC(=O)[C@H](CCCCN)NC(=O)[C@H](CCCNC(=N)N)NC(=O)[C@@H](N)CCSC)C(=O)N[C@H](C(=O)N[C@@H](C)C(=O)N[C@H](C(=O)N[C@@H](Cc1c[nH]c2ccccc12)C(=O)N[C@@H](CCSC)C(=O)N[C@@H](CC(C)C)C(=O)N[C@@H](CCC(=O)O)C(=O)N[C@H](C(=O)N[C@@H](CS)C(=O)N[C@@H](CCC(=O)O)C(=O)N[C@@H](CCC(=O)O)C(=O)O)C(C)C)[C@@H](C)O)C(C)C [Peptide 9019.0151]
IC50 (purified HLA DRB1*0404): > 20 µM | IC50 (purified HLA DRB1*1101): > 20 µM | IC50 (purified HLA DRB5*0101): 17 µM

CSCC[C@H](NC(=O)[C@H](CC(C)C)NC(=O)[C@H](CCC(=O)O)NC(=O)[C@H](Cc1c[nH]c2ccccc12)NC(=O)[C@@H](NC(=O)[C@@H](NC(=O)[C@@H](NC(=O)CNC(=O)[C@H](Cc1ccc(O)cc1)NC(=O)[C@H](CO)NC(=O)[C@H](Cc1c[nH]c2ccccc12)NC(=O)[C@@H](NC(=O)[C@H](CC(=O)O)NC(=O)[C@@H](N)CO)C(C)C)C(C)C)[C@@H](C)O)C(C)C)C(=O)N[C@H](C(=O)O)[C@@H](C)O [Peptide 9019.0089]
IC50 (purified HLA DRB4*0101): > 20 µM

CC[C@H](C)[C@H](NC(=O)CNC(=O)[C@H](CC(=O)O)NC(=O)[C@H](Cc1ccc(O)cc1)NC(=O)[C@@H]1CCCN1C(=O)[C@H](CCCCN)NC(=O)[C@H](C)N)C(=O)N1CCC[C@H]1C(=O)N[C@@H](C)C(=O)N[C@@H](CCCNC(=N)N)C(=O)N[C@@H](CCC(=O)O)C(=O)N[C@H](C(=O)N1CCC[C@H]1C(=O)N[C@@H](CC(=O)O)C(=O)N[C@@H](CC(C)C)C(=O)O)[C@@H](C)CC [Peptide 9019.0092]
IC50 (purified HLA DRB1*0401): > 20 µM | IC50 (purified HLA DRB1*0404): > 20 µM | IC50 (purified HLA DRB1*1101): > 20 µM | IC50 (purified HLA DRB4*0101): > 20 µM

CC[C@H](C)[C@H](NC(=O)[C@H](CCCCN)NC(=O)[C@H](CCC(N)=O)NC(=O)[C@@H](N)CCC(N)=O)C(=O)N[C@@H](CCCNC(=N)N)C(=O)N[C@@H](CCCCN)C(=O)N[C@@H](Cc1ccc(O)cc1)C(=O)N[C@H](C(=O)N[C@@H](CCSC)C(=O)N[C@@H](CCCNC(=N)N)C(=O)N[C@@H](CCCNC(=N)N)C(=O)N[C@@H](CC(C)C)C(=O)N[C@@H](CC(C)C)C(=O)N[C@@H](CCC(N)=O)C(=O)N[C@@H](CCC(=O)O)C(=O)O)[C@@H](C)O [Peptide 9019.0070]
IC50 (purified HLA DRB1*0405): > 20 µM

CC[C@H](C)[C@H](N)C(=O)N[C@@H](CS)C(=O)N[C@H](C(=O)N[C@H](C(=O)N[C@@H](CC(=O)O)C(=O)N[C@H](C(=O)N[C@@H](Cc1ccc(O)cc1)C(=O)N[C@@H](CCSC)C(=O)N[C@H](C(=O)N[C@@H](CCSC)C(=O)N[C@H](C(=O)N[C@@H](CCCCN)C(=O)N[C@@H](CS)C(=O)N[C@@H](Cc1c[nH]c2ccccc12)C(=O)N[C@@H](CCSC)C(=O)O)C(C)C)[C@@H](C)CC)C(C)C)[C@@H](C)CC)[C@@H](C)O [Peptide 1622.04]
IC50 (purified HLA DRB1*0101): > 20 µM | IC50 (purified HLA DRB1*0404; read-out: IC50 to purified HLA DRB1*0404, purified HLA DRB1*0404): > 20 µM
